# What was measured:
# [1] = tested on: Apis mellifera Carniolan foraging worker honeybees; experiment: Choice test in free-flight box apparatus; format: in vivo; details: for Repellence Score: percent food-weight change vs corresponding dishes in preceding test
# Experimental: To determine whether living honeybees will choice to move towards a source of a candidate compound, these compounds were assayed using a choice test in a free-flight box apparatus.
# All tests were done in a free-flight box apparatus. The apparatus comprises a 244 cm long×46 cm deep×30 cm high clear plastic box including two equally-sized independent testing chambers, each with 10 cm diameter air inlets that admit filtered room air, separated by a smaller central chamber with a screened air outlet to each testing chamber. Air can be pulled through the sealed box via a 10 cm diameter duct from the air outlet using an AQE Fume Fighter 500 fume extractor (BPA Air Quality Solutions, LLC, Charleston, S.C.), which removes the test odors using activated charcoal and HEPA filters. The box is housed in an environmentally controlled room with overhead illumination timed to correspond to the current ambient light cycle including 2 additional sets of lights timed to approximate crepuscular lighting conditions. The bottom of the apparatus was lined with clean absorbent paper marked with a 4×9 grid pattern, forming 12 cm×12 cm squares with marked coordinates.
# Apis mellifera Carniolan foraging worker honeybees were obtained from a local apiary (typically 60 bees per shipment). Thirty honeybees were put into each testing chamber and were allowed to acclimate for 24 hours with food and water freely available.
# At the beginning of each test day all food was removed from the test chamber, but water was continually available throughout all tests. For each test, approximately 0.3 g of organic, raw orange blossom honey was added to each clean small plastic weigh boat (Cole-Palmer). The honey boats were placed in small plastic culture dishes, which were distributed in the marked squares in the chambers. The positions of the dishes on the grid for a set of trials was chosen to avoid the bees' preferred resting area so that they had to find the food actively, but the same dish positions were maintained for a given set of trials. […] The honey in each boat was weighed on an analytical balance before and after the test, with the screened sample as a control for evaporative loss. The fume extractor was left off during the experimental trails, and was turned on to clear the air after the test dishes were covered and removed from the chamber at the end of each trial.
# Based on the observation that bees tend to return to dishes in the same position where they have fed before, each set of trials with each group of bees began with “Pattern Identification” tests to see which dishes lose the most weight, reflecting the most feeding. Once bees were consuming an acceptable amount in 10-15 min, typically in 1-2 trials, we began a set of test compound trials. The test compound was pipetted onto pieces of filter paper placed on the dish bottom below the boat containing a fresh, weighed honey sample so that the test compound was inaccessible to the bees. We used 2 μL of a candidate compound at a concentration of 0.05-0.5%, in Triton X-100 or paraffin oil, on each of four pieces of filter paper per dish. The test-solution dishes were set at the same positions as the one or two dishes favored in the preceding Pattern Identification trial. To eliminate interference from the solvent, the other dishes without the test substance contained the same volume of the appropriate solvent on filter papers as the test solution dishes. The bees were allowed to feed for 10-15 minutes. Bee movements were recorded by a small, wide-angle digital video camcorder (HD Hero 960; GoPro, Halfmoon Bay, Calif.) placed on a tripod in front of the test chamber. The bees were given a brief rest while the honey was weighed and a second test was begun with fresh dishes, except that the test compound-containing dish or dishes were placed at whichever positions were most visited in the preceding test. […] The bees were then rested for 1-3 hours and a subsequent set of trials begun with another Pattern Identification. […]
# [2] = cited from earlier work
# [3] = tested on: OBP2; experiment: Fluorescent-quench ligand-protein-binding assay (OBP2 binding screen); parameters: species or system Apis mellifera
# From the text: To identify a honeybee repellent disclosed herein, candidate compounds were screened based upon the fact that 2-heptanone is an established repellent of bees. 2-heptanone is thought to mediate its behavioral response through binding to a specific odorant-binding protein called OBP2. Therefore compounds that bind OBP2 have the potential to act as odor “mimics” of 2-heptanone. By utilizing a fluorescent-quench, ligand-protein-binding assay, 30,000 compounds from the DIVERSET® library (ChemBridge Corp., San Diego, Calif.), a chemical library, were screened and over 150 candidate compounds were isolated that bind OBP2 (Table 1). Such assays are generally known in the art. See, e.g., Briand, et al., Ligand-Binding Properties and Structural Characterization of a Novel Rat Odorant-Binding Protein Variant, Eur. J. Biochem. 267(10): 3079-3089 (2000); Briand, et al., Ligand Binding and Physico-Chemical Properties of ASP2, A Recombinant Odorant-Binding Protein From Honeybee (Apis mellifera L.), Eur. J. Biochem. 268(3): 752-760 (2001); Briand, et al., Characterization of a Chemosensory Protein (ASP3c) from Honeybee (Apis mellifera L.) as a Brood Pheromone Carrier, Eur. J. Biochem. 269(18): 4586-4596 (2002), each of which is hereby incorporated by reference in its entirety.
# [4] = tested on: Apis mellifera Carniolan foraging worker honeybees; experiment: Proboscis extension response (PER) assay in bees conditioned to 2-heptanone; format: in vivo; details: for 2-heptanone positive bees testing positive to compound: final compound concentration 0.5% (TRITON X-100/water), 4 s exposure, only bees PER-positive to 2-heptanone and negative to controls counted
# Experimental: To determine whether a living honeybee can recognize a candidate compound, these compounds were tested using a proboscis extension response (PER) assay using classical conditioning approaches. Proboscis extension response conditioning is a case of appetitive learning, in which bees learn to associate odor stimuli with sucrose reward in the laboratory. In this case, bees were conditioned to produce a PER to 2-heptanone as the conditioned stimulus and a sugar reward as the unconditioned stimulus. These trained bees were then exposed to an odor pulse of a candidate compound to test whether a candidate compound would also produce a PER. If the candidate compound “mimics” 2-heptanone then the honeybee will extend its proboscis.
# For conditioning procedures, Apis mellifera Carniolan foraging worker honeybees were obtained from a local apiary (typically 60 bees per shipment). The honeybees were held overnight in insect cages with food and water freely available, in an environmentally controlled room on a light cycle similar to the ambient cycle at the time of the assay.
# For conditioning procedures, all tests were done in an odorant delivery apparatus set inside a fume hood. The apparatus comprised a set of open-ended, horizontal, 3 cm diameter by 10 cm long plastic tubes. Each tube was designed where a honeybee could be positioned at the distal end of a tube, with the opening at the other end of the tube located proximal to an inlet of the fume hood. To deliver an odorant, room air was pumped by a diaphragm pump through a particle filter via 0.25 inch plastic tubing at approximately 0.7 m/sec. The air flow passes into the headspace above an odorant (0.5% [v/v]2-heptanone dissolved in odorless light paraffin oil) contained in a 100 mL bottle. The headspace air then passes through another plastic tube to a manifold of 4-way valves, each of which was attached near the proximal end of a plastic tube containing a bee. Each bee was exposed separately for a desired time period to the odorant by opening and closing the appropriate valve. When each valve was closed, the odor was flushed away immediately by the continuous fume hood air stream.
# To train a honeybee to respond to a conditioned and unconditioned stimuli, bees were placed, without anesthesia, in individual 1.5 mL micro-centrifuge holding tubes and held overnight without access to food or water. The holding tubes containing the starved bees were placed in racks in groups of eight. One rack at a time was placed behind the odorant delivery apparatus so that each bee's head is centered at the distal end of a horizontal plastic tube. Each bee was exposed to the 2-heptanone odorant alone for four seconds, and then while being fed an 80% sucrose solution for and additional three seconds. The sucrose solution was delivered on a piece of saturated filter paper held in forceps. […] Positive and negative responses were recorded. A positive PER was scored when a bee extended its proboscis before the sucrose appeared. In a typical trial, 48 individual bees were subjected to conditioning. Six rounds of training were done before testing began, and typically a majority of the bees were successfully conditioned by the second or third round of training.
# After conditioning, honeybees were tested with the candidate compounds the same day or on the following day or, most commonly, both. When held overnight, bees were fed with sucrose and kept in their holding tubes. When tested the day after training, bees were given one or more rounds of conditioning with 2-heptatone to refresh their memories. Candidate compounds stocks were made at 5% (w/v) in polyoxyethylene octyl phenyl ether (TRITON® X-100), a non-ionic detergent/surfactant, and stored at 4° C. This detergent is similar to substances used as carriers for a variety of commercial pest-control agents, can act as a solvent for both hydrophilic and hydrophobic substances, and is itself nearly odorless. […]
# [5] = amount 0.5%, negative = increase in food consumption
Compound,"Repellence Score [1, 5] [%]",solubility in alcohol or ether ([2]; alcohol or ether),solubility in water ([2]; water),OBP2 binding characteristic of compound [3],2-heptanone positive bees testing positive to compound [4] [%],Repellent or attractant effect in choice test (in words) ([1]; reduction of feeding at dishes most visited in preceding test),Effectiveness at 10-fold lower concentration ([1]; 0.05% compared with 0.5%),Repellence Score ([1]; amount 0.05%) [%],Repellence Score ([1]; amount 0.1%) [%],% Positive in PER ([4]; PER score as repeated in Table 3) [%]
CCCCCC(C)=O [2-heptanone],54.6,soluble,very slightly soluble,–,–,–,–,–,–,–
O=C(NNC1=C(C(=O)C(F)(F)F)CCC1)c1ccc(Br)cc1 [compound 36],56.3,–,–,"Moderate (Moderate, indicates that 50% or less of the compound bound to OBP2.)",24.3,–,–,–,–,–
"O=C(Nc1ccccc1C(=O)Nc1ccccc1Cl)c1ccccc1 [compound 10, 2-(benzoylamino)-N-(2-chlorophenyl)benzamide]",45.6,–,–,"Moderate (Moderate, indicates that 50% or less of the compound bound to OBP2.)",4.8,–,–,–,–,–
"Cc1cc(C)c2c(N)c(C(=O)c3ccc(Cl)cc3)sc2n1 [compound 8, (3-amino-4,6-dimethylthieno[2,3-b]pyridin-2-yl)(4-chlorophenyl)methanone]",−10.7,–,–,"Moderate (Moderate, indicates that 50% or less of the compound bound to OBP2.)",14.4,slightly attractive,–,–,–,–
"O=[N+]([O-])c1ccc(C=Cc2ccc(O)cc2)cc1 [compound 2, 4-[2-(4-nitrophenyl)vinyl]phenol]",37.6,–,–,"Moderate (Moderate, indicates that 50% or less of the compound bound to OBP2.)",31.5,–,significantly more effective,57.7,–,–
"COc1ccc(CN2CCN(Cc3ccccc3)CC2)c(C)c1C [compound 7, 1-benzyl-4-(4-methoxy-2,3-dimethylbenzyl)piperazine]",–,–,–,"Moderate (Moderate, indicates that 50% or less of the compound bound to OBP2.)",39.0,–,–,–,62.0,–
"COc1ccc(C(=O)C=Cc2c(C)[nH]c3ccccc23)cc1 [compound 1, 1-(4-methoxyphenyl)-3-(2-methyl-1H-indol-3-yl)-2-propen-1-one]",57.8,–,–,"Moderate (Moderate, indicates that 50% or less of the compound bound to OBP2.)",26.6,–,–,–,–,–
"CC(=O)c1cc(Cl)ccc1OC(=O)c1ccc(C)cc1 [compound 40, 2-acetyl-4-chlorophenyl 4-methylbenzoate]",54.6,–,–,"Moderate (Moderate, indicates that 50% or less of the compound bound to OBP2.)",34.3,–,–,–,–,30.5

# — patent US10098352B2, “Honeybee repellents and uses thereof” (Inscent, Inc., priority 2011, dated 2018)
